According to patent publication US10800816B2 (Baxalta GmbH, priority 2012, dated 2020):
“Also recorded” adds a separate entry of the source. Where a SMILES comes first, the peptide text is derived from it. Bridges are numbered along the chain shown (N, C = ends). [ ]: non-standard residue; d: D form. Tle = CC(C)(C)[C@H](N)C(=O)O; Aib = CC(C)(N)C(=O)O

Experiments:
[1] = tested on: FVIII-inhibited whole blood; test: Rotation thromboelastography (ROTEM) in whole blood; design: species or system human; conditions: Hem A / FVIII-inhibited human whole blood
Description: Continuous visco-elastic assessment of human whole blood clot formation and firmness was performed by rotation thromboelastography with whole blood preparations in the presence or absence of peptides. […] Test samples were prepared by dissolving quantities of peptides in either DMSO or HEPES buffered saline (with or without 0.1% Tween 80).
Recordings were made using a ROTEM thromboelastography coagulation analyzer (Pentapharm, Munich, Germany) at 37° C. Briefly, blood is added into a disposable cuvette in a heated cuvette holder. A disposable pin (sensor) is fixed on the tip of a rotating axis. The axis is guided by a high precision ball bearing system and rotates back and forth. The axis is connected with a spring for the measurement of elasticity. The exact position of the axis is detected by the reflection of light on a small mirror on the axis. The loss of elasticity when the sample clots leads to a change in the rotation of the axis. The data obtained are computer analyzed and visualized in a thromboelastogram. […] An elasticity of approximately zero is observed before clot formation begins. Mirror image traces above and below the zero line indicate the effect of clot formation on the rotation of the axis.
The analytical set-up was as follows: to 20 μL of test sample or control, 300 μL of pre-warmed (37° C.) CTI treated citrated whole blood was added, followed by 20 μL of a 1:15 dilution of TF PRP reagent containing recombinant human tissue factor (rTF, 3 pM) (TS40, Thrombinoscope BV, Maastricht, The Netherlands). Coagulation was initiated by the addition of 20 μ200 mM CaCl2 (star-TEM®, Pentapharm, Munich, Germany) and recordings were allowed to proceed for at least 120 min. The final concentration of rTF in the assay was 11 or 44 fM.
The thromboelastographic parameters of clotting time (CT), clot formation time (CFT) and maximum clot firmness (MCF) were recorded in accordance with the manufacturer's instructions. CT is defined as the time from the start of measurement to the start of clot formation. CFT is defined as the time from the start of clot formation until an amplitude of 20 mm is reached. MCF is the maximum difference in amplitude between the two traces during the assay. The first derivative of the data of the thromboelastogram are plotted to obtain a graph of velocity (mm/s) against time (s). From this graph, the maximum velocity (maxV) is determined. The time at which the maximum velocity is obtained (maxV-t) is also determined.
This example describes a method for assessing clot formation in whole blood using rotation thromboelastography (ROTEM). The assay was performed as described in Example 8. The analytical set-up was as follows: 300 μL of pre-warmed (37° C.) CTI treated citrated whole blood was added to a peptide sample (10, 100, 1000 nM final assay concentration) or a control, followed by addition of a 1:15 dilution of TF PRP reagent containing recombinant human tissue factor (rTF, 3 pM) (TS40, Thrombinoscope BV, Maastricht, The Netherlands). In certain experiments, exogenous full length TFPI (flTFPI) at final concentrations of 2 or 10 nM was added to simulate flTFPI plasma levels of up to 50-fold over normal. Coagulation was initiated by the addition of 20 μL 200 mM CaCl2 (star-TEM®, Pentapharm, Munich, Germany) and recordings were allowed to proceed for at least 120 min. The final concentration of rTF in the assay was 44 fM. The thromboelastographic parameters of clotting time (CT), clot formation time (CFT) and maximum clot firmness (MCF) were recorded in accordance with the manufacturer's instructions. CT is defined as the time from the start of measurement to the start of clot formation. CFT is defined as the time from the start of clot formation until an amplitude of 20 mm is reached. MCF is the maximum difference in amplitude between the two traces during the assay.

[2] = mouse, 24 h
[3] = human, plasma, 24 h
[4] = in vitro; conditions: human, plasma
[5] = tested on: Tissue Factor Pathway Inhibitor (TFPI); test: IC50 ELISA | Mean IC50 [nM]
Text: Table printed on a drawing sheet, FIGURE 78V
Head of the field: IC50 ELISA | Mean IC50 [nM]

[6] = tested on: TFPI; test: % Inhibition @ 2.5µM
[7] = tested on: TFPI; test: % Inhibition @ 0.63µM
[8] = tested on: TFPI; test: FXa Inhibition assay | EC50 (µM)
[9] = tested on: Tissue Factor Pathway Inhibitor (TFPI); test: IC50 ELISA | Mean IC50 [nM]; remark: listed apart in the source
[10] = tested on: Tissue Factor Pathway Inhibitor (TFPI); test: IC50 ELISA | IC50 [nM]
Text: Table printed on a drawing sheet, FIGURE 78G
Head of the field: IC50 ELISA | IC50 [nM]

[11] = tested on: TFPI; test: Extrinsic Tenase Inhibition assay | % Inhibition @ 2.5μM

In the case of `CC(=O)N[C@@H](Cc1ccccc1)C(=O)N[C@@H](CCC(N)=O)C(=O)N[C@@H](CO)C(=O)N[C@@H](CCCCN)C(=O)N1CCC[C@@H]1C(=O)N[C@@H](CC(N)=O)C(=O)N[C@H](C(=O)N[C@@H](Cc1cnc[nH]1)C(=O)N[C@H](C(=O)N[C@@H](CC(=O)O)C(=O)NCC(=O)N[C@@H](Cc1ccc(O)cc1)C(=O)N[C@@H](Cc1ccccc1)C(=O)N[C@@H](CCC(=O)O)C(=O)N[C@@H](CCCNC(=N)N)C(=O)N[C@@H](CC(C)C)C(=O)NC(C)(C)C(=O)N[C@@H](C)C(=O)N[C@@H](CCCCN)C(=O)N[C@@H](CC(C)C)C(N)=O)C(C)C)C(C)C` [JBT1857], the coagulation parameters [1] is reported as “restored coagulation parameters in Hem A blood; also recorded: positively impacted blood coagulation parameters, but performed less efficiently than JBT1837”, the “percentage of initial amount of peptide remaining in plasma” value [2] is reported as < 10% and the “percentage of initial amount of peptide remaining” value ([2]; plasma) is reported as “Less than 5%”. For the same compound, the “percentage of original amount of peptide remaining” value [3] was 27% and the remaining at 24 h [4] was 27%.
Compound `CC(=O)N[C@@H](Cc1ccccc1)C(=O)N[C@@H](CCC(N)=O)C(=O)N[C@@H](CO)C(=O)N[C@@H](CCCCN)C(=O)N1CCC[C@@H]1C(=O)N[C@@H](CC(N)=O)C(=O)N[C@H](C(=O)N[C@@H](Cc1c[nH]cn1)C(=O)N[C@H](C(=O)N[C@@H](CC(=O)O)C(=O)N[C@@H]1CSSC[C@@H](C(=O)N[C@@H](CCCNC(=N)N)C(=O)N[C@@H](CC(C)C)C(=O)NC(C)(C)C(=O)N[C@@H](C)C(=O)N[C@@H](CCCCN)C(=O)N[C@@H](CC(C)C)C(N)=O)NC(=O)[C@H](Cc2ccccc2)NC(=O)[C@H](Cc2ccc(O)cc2)NC1=O)C(C)(C)C)C(C)C` [JBT00002495, Ac-FQSKpNVH-Tle-D[cYFC]RL-Aib-AKL-NH2] (Ac-FQSK[dP]NVH[Tle]D[dC]YFCRL[Aib]AKL-NH2; disulfide 11-14) has an IC50 [5] of 3.36 nM.
With “Ac-FQSKKAVFVFGYFERLRAKL-NH2 (SEQ ID NO: 288) [JBT0696]” the “% Inhibition @ […]” value [6] was 48%, the “% Inhibition @ […]” value [7] was 26% and the EC50 [8] was 710 nM.
For “Ac-FQSKaNVFVFGYFERLRAKL-NH2 (SEQ ID NO: 53) (Ac-FQSK[dA]NVFVFGYFERLRAKL-NH2; SMILES CC(=O)N[C@@H](Cc1ccccc1)C(=O)N[C@@H](CCC(N)=O)C(=O)N[C@@H](CO)C(=O)N[C@@H](CCCCN)C(=O)N[C@H](C)C(=O)N[C@@H](CC(N)=O)C(=O)N[C@H](C(=O)N[C@@H](Cc1ccccc1)C(=O)N[C@H](C(=O)N[C@@H](Cc1ccccc1)C(=O)NCC(=O)N[C@@H](Cc1ccc(O)cc1)C(=O)N[C@@H](Cc1ccccc1)C(=O)N[C@@H](CCC(=O)O)C(=O)N[C@@H](CCCNC(=N)N)C(=O)N[C@@H](CC(C)C)C(=O)N[C@@H](CCCNC(=N)N)C(=O)N[C@@H](C)C(=O)N[C@@H](CCCCN)C(=O)N[C@@H](CC(C)C)C(N)=O)C(C)C)C(C)C) [JBT0663]”, the “% Inhibition @ […]” value [6] was 81%, the “% Inhibition @ […]” value [7] was 60% and the EC50 [8] was 290 nM.
In the case of “Ac-FQSKaNVFVTGYFARLRAKL-NH2 (SEQ ID NO: 54) (Ac-FQSK[dA]NVFVTGYFARLRAKL-NH2; SMILES CC(=O)N[C@@H](Cc1ccccc1)C(=O)N[C@@H](CCC(N)=O)C(=O)N[C@@H](CO)C(=O)N[C@@H](CCCCN)C(=O)N[C@H](C)C(=O)N[C@@H](CC(N)=O)C(=O)N[C@H](C(=O)N[C@@H](Cc1ccccc1)C(=O)N[C@H](C(=O)N[C@H](C(=O)NCC(=O)N[C@@H](Cc1ccc(O)cc1)C(=O)N[C@@H](Cc1ccccc1)C(=O)N[C@@H](C)C(=O)N[C@@H](CCCNC(=N)N)C(=O)N[C@@H](CC(C)C)C(=O)N[C@@H](CCCNC(=N)N)C(=O)N[C@@H](C)C(=O)N[C@@H](CCCCN)C(=O)N[C@@H](CC(C)C)C(N)=O)[C@@H](C)O)C(C)C)C(C)C) [JBT0668]”, the “% Inhibition @ […]” value [6] is reported as 70%, the “% Inhibition @ […]” value [7] is reported as 43% and the EC50 [8] is reported as 520 nM.
For “Ac-FQSKp-C(Acm)-VH-Tle-D[cY-Bta--Hcy-]RL-Aib-AKL- NH2 [JBT00002501]”, the IC50 [9] was 6.31 nM.
In the case of “Ac-FQSKp-C(NEM)-VH-Tle-DaY-Bta-ERL-Aib-AKL-NH2 [JBT00002502]”, the IC50 [9] is reported as 3.89 nM.
In the case of “Ac-FQSKp-Nmn-VHVDGYFERL-Aib-AKL-NH2 [JBT00002287]”, the IC50 [10] is reported as > 500 nM.
In the case of “Ac-FQSKpN-Chg-H-Chg-DGYFERL-Aib-AKL-NH2 [JBT00002295]”, the IC50 [10] is reported as > 5000 nM.
For “Ac-FQSKpN-Phg-H-Phg-DGYFERL-Aib-AKL-NH2 [JBT00002298]”, the IC50 [10] was > 5000 nM.
With “Ac-FQSKpNVH-Tle-D-hcy-YF-Hcy-RL-Aib-AKL-NH2 [JBT00002497]” the IC50 [5] was 7.16 nM.
“Ac-FQSKpNVH-Tle-D-hcy-YFCRL-Aib-AKL-NH2 [JBT00002498]” showed an IC50 [5] of 7.59 nM.
With “Ac-FQSKpNVH-Tle-DcY-Bta--Hcy-RL-Aib-AKL-NH2 [JBT00002500]” the IC50 [9] was 5.26 nM.
With “Ac-SRYKWFCGMRDMKGTMSAVWVKF-NH2 (SEQ ID NO: 1160) [JBT0454]” the “Extrinsic Tenase Inhibition assay | % Inhibition @ […]” value [11] was 0%.
For “Ac-SRYKWFGM[CRDMKGTMSC]VWVKF-NH2 (SEQ ID NO: 1233) (Ac-SRYKWFGMCRDMKGTMSCVWVKF-NH2; disulfide 9-18; SMILES CSCC[C@H](NC(=O)CNC(=O)[C@H](Cc1ccccc1)NC(=O)[C@H](Cc1c[nH]c2ccccc12)NC(=O)[C@H](CCCCN)NC(=O)[C@H](Cc1ccc(O)cc1)NC(=O)[C@H](CCCNC(=N)N)NC(=O)[C@H](CO)NC(C)=O)C(=O)N[C@H]1CSSC[C@@H](C(=O)N[C@H](C(=O)N[C@@H](Cc2c[nH]c3ccccc23)C(=O)N[C@H](C(=O)N[C@@H](CCCCN)C(=O)N[C@@H](Cc2ccccc2)C(N)=O)C(C)C)C(C)C)NC(=O)[C@H](CO)NC(=O)[C@H](CCSC)NC(=O)[C@H]([C@@H](C)O)NC(=O)CNC(=O)[C@H](CCCCN)NC(=O)[C@H](CCSC)NC(=O)[C@H](CC(=O)O)NC(=O)[C@H](CCCNC(=N)N)NC1=O) [JBT0462]”, the “Extrinsic Tenase Inhibition assay | % Inhibition @ […]” value [11] was 0%.
In the case of “Ac-SRYKWF[CGMADMKGTMSC]VWVKF-NH2 (SEQ ID NO: 1079) (Ac-SRYKWFCGMADMKGTMSCVWVKF-NH2; disulfide 7-18; SMILES CSCC[C@@H]1NC(=O)CNC(=O)[C@@H](NC(=O)[C@H](Cc2ccccc2)NC(=O)[C@H](Cc2c[nH]c3ccccc23)NC(=O)[C@H](CCCCN)NC(=O)[C@H](Cc2ccc(O)cc2)NC(=O)[C@H](CCCNC(=N)N)NC(=O)[C@H](CO)NC(C)=O)CSSC[C@@H](C(=O)N[C@H](C(=O)N[C@@H](Cc2c[nH]c3ccccc23)C(=O)N[C@H](C(=O)N[C@@H](CCCCN)C(=O)N[C@@H](Cc2ccccc2)C(N)=O)C(C)C)C(C)C)NC(=O)[C@H](CO)NC(=O)[C@H](CCSC)NC(=O)[C@H]([C@@H](C)O)NC(=O)CNC(=O)[C@H](CCCCN)NC(=O)[C@H](CCSC)NC(=O)[C@H](CC(=O)O)NC(=O)[C@H](C)NC1=O) [JBT0446]”, the “Extrinsic Tenase Inhibition assay | % Inhibition @ […]” value [11] is reported as 46%.
